Data reported in PubChem BioAssay AID504322 (Emory University Molecular Libraries Screening Center, 2011).
Calls of active or inactive are those of the source. The rule behind the calls is not given here.

Test system: CHOP reporter cell assay, percent of control
Assay: CHOP reporter inhibitor potency, dose response, cell-based (AID 504322);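 note: CHO cells carrying a CHOP reporter stimulated with tunicamycin to induce ER stress; potency is for inhibition of the stress-induced reporter signal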

Row | SMILES | IC50
1 | CN(C(=O)CCl)C1CCCc2ccccc21 (centres undefined) | > 10 µM (inactive)
2 | CS(=O)(=O)c1nc(-c2cccs2)cc(C(F)(F)F)n1 | < 0.16 µM
3 | CCc1cc(-c2n[nH]c(C)c2Oc2ccc(C(C)C)cc2)c(O)cc1O | 7.24 µM (inactive)
4 | CCN(CC)S(=O)(=O)c1cccc(NC(=O)Nc2cccc(C(F)(F)F)c2)c1 | 8.55 µM (inactive)
5 | Clc1ccc2c(N/N=C/c3ccc(Br)cc3)ccnc2c1 | 9.92 µM (inactive)
6 | Cc1cccc(NCC(=O)N/N=C\c2cccc(Oc3ccccc3)c2)c1 | 8.02 µM (inactive)
7 | C=C(C=O)CC1CC(O)[C@]2(C)OC3CC4OC5C[C@]6(C)O[C@]7(C)CCC8OC9C[C@]%10(C)OC%11C(C)=CC(=O)OC%11CC%10OC9C[C@@H](C)C8OC7CC6O[C@]5(C)CC5OC5C4OC3CC2O1 (some centres undefined) | 0.82 µM
8 | CCCC(=O)NC(NC(=S)Nc1ccc(N=Nc2ccccc2)cc1)C(Cl)(Cl)Cl (centres undefined) | 7.31 µM
9 | CCCCc1nc(NCCN)c(C#N)c2c1CSC(C)(C)C2 | 5.15 µM (inactive)
10 | O=C(/C=C\c1cn(-c2ccccc2)nc1-c1ccccc1)Nc1nccs1 | 6.03 µM (inactive)
11 | Cc1nc(Nc2ccc(F)cc2)[nH]c(=O)c1CCC(C)C | 2.43 µM
12 | CCOc1ccc(C2C=C(c3ccc(C)cc3)Nc3nnnn32)cc1 (centres undefined) | 9.86 µM (inactive)
13 | COc1cc(/C=C/C(=O)OC2CC3CCC2(C)C3(C)C)ccc1O (centres undefined) | 9.52 µM (inactive)
14 | O=C1c2ccccc2-c2onc3ccc(Oc4ccccc4)c1c23 | 9.64 µM (inactive)
15 | Cc1cccc(NC(=O)/C(C#N)=C/c2cn(CC(=O)NCc3ccco3)c3ccccc23)c1C | > 10 µM (inactive)
16 | O=C(Nc1cccc(Cl)c1Cl)c1cc(S(=O)(=O)NCCc2ccccc2)ccc1F | 9.57 µM (inactive)
17 | CS(=O)(=O)c1ccc(S(=O)CC(=O)OCc2ccccc2)c([N+](=O)[O-])c1 (centres undefined) | > 10 µM (inactive)
18 | Cc1ccc2nc(-c3cc(-c4ccccc4)no3)cn2c1 | 9.74 µM (inactive)
19 | Cc1ccc(C2=NN(C(=O)c3cccs3)C(c3ccccc3O)C2)cc1 (centres undefined) | 9.38 µM (inactive)
20 | Cc1ccc(-c2nn(-c3ccccc3)cc2/C=N/NC(=O)c2ccc(Br)o2)cc1 | 5.04 µM
21 | O=c1[nH]c(=O)n(Cc2ccco2)c2c1C(C(F)(F)F)(C(F)(F)F)N=C(c1ccc(F)cc1)N2 | 6.5 µM (inactive)
22 | CCCCCc1c(C)nc(Nc2ccccc2)[nH]c1=O | 9.72 µM (inactive)
23 | C[C@H](NC(=O)c1[nH]cnc1C(=O)Nc1ccc(Cl)cc1)C(=O)OC(C)(C)C | 5.47 µM (inactive)

Row | SMILES | IC50
24 | Oc1ccc(/C=N/Nc2nc(N3CCCCCC3)nc(N3CCCCCC3)n2)c(O)c1 | 9.82 µM (inactive)
25 | CCOC(=O)c1ccc(NC(=O)c2nc[nH]c2C(=O)N[C@@H](C)C(=O)OC(C)(C)C)cc1 | 5.92 µM (inactive)
26 | Cc1ccc2nc(NC(=O)CSCC(=O)OCC(=O)c3ccc(Br)cc3)sc2c1 | 5.35 µM (inactive)
27 | O=C(O)c1ccc(N/N=C/c2ccc3nccnc3c2)cc1 | 6.06 µM (inactive)
28 | Cc1ccc(Nc2nc(N)c([N+](=O)[O-])c(N3CCC(C)CC3)n2)cc1C | 5.69 µM (inactive)
29 | Cn1c(=O)cc(SCC(=O)NCCC2=CCCCC2)c2ccc(Cl)cc21 | 5.34 µM (inactive)
30 | CCCOC(=O)c1ccc(Oc2c(-c3ccc(OCC)cc3O)n[nH]c2C)cc1 | 2.34 µM
31 | O=C(CCl)Nc1cc(-c2ccccc2)nn1-c1ccccc1 | 9.78 µM (inactive)
32 | Cc1cccc(/C=C/c2nc3ccccc3c(=O)[nH]2)c1 | > 10 µM (inactive)
33 | O=C1C(Cl)=C(N2CCCCC2)C(=O)C(Cl)=C1c1cnc(N2CCCCC2)s1 | 9.7 µM (inactive)
34 | Nc1c(C(=O)Nc2ccccc2F)sc2nc(-c3cccnc3)ccc12 | > 10 µM (inactive)
35 | O=C(Nc1cc(N2CCOCC2)ncn1)NC1(C(F)(F)F)Oc2ccc(Cl)cc2O1 (centres undefined) | > 10 µM (inactive)
36 | CCCCCCN1C=CC(=C2C(=O)c3ccccc3C2=O)C=C1 | 6.36 µM (inactive)
37 | CC[n+]1c(/C=C2\Sc3ccccc3N2C)ccc2cccc(C)c21 | > 10 µM (inactive)
38 | COc1cc(OC)cc(-c2nc3ccccc3c(=O)n2OC(=O)c2ccc(Br)cc2)c1 | > 10 µM (inactive)
39 | Cc1cc(/C=c2/sc3nc4ccccc4n3c2=O)c(C)n1-c1ccccn1 | < 0.16 µM
40 | CCOc1cc(CNc2ccc(O)cc2)ccc1OCc1ccc(Cl)cc1Cl | 1.72 µM
41 | CCCc1nc2oc(C(=O)c3ccccc3)c(N)c2c2c1COC(C)(C)C2 | > 10 µM (inactive)
42 | CCNC(=O)c1c(NC(=O)c2cc(-c3cc(C)ccc3O)n[nH]2)sc2c1CCCC2 | 9.58 µM (inactive)
43 | Cn1ncc2c(O/N=C(\N)c3ccc(C(C)(C)C)cc3)ncnc21 | 4.27 µM
44 | O=C(Cc1ccccc1)Nc1cccc(N2C(=O)C=CC2=O)c1 | 9.71 µM (inactive)
45 | Nc1c(C(=O)Nc2nc3ccccc3s2)sc2nc(-c3cccs3)ccc12 | 7.44 µM (inactive)
46 | CC(C)(C)c1ccc(OCCNC(=S)Nc2ccccc2)cc1 | > 10 µM (inactive)

Row | SMILES | IC50
47 | O=[N+]([O-])c1cc(S(=O)(=O)C(F)(F)F)ccc1Sc1nc2ccccc2[nH]1 | 9.3 µM (inactive)
48 | O=S(=O)(/C(=C/c1ccc(C(F)(F)F)cc1)c1nc2ccccc2[nH]1)c1ccccc1 | 5.46 µM (inactive)
49 | CCC1CCc2c(sc(NC(=O)c3ccoc3C)c2C(N)=O)C1 (centres undefined) | > 10 µM (inactive)
50 | O=C(CNC1CCCCCC1)Nc1ccccc1N1CCCCC1 | 7.73 µM (inactive)
51 | COc1cc(/C=C(/C#N)c2nc3ccccc3[nH]2)ccc1OCC(=O)Nc1ccccc1C(C)C | 4.54 µM
52 | OC1(c2cccc(C(F)(F)F)c2)CCN(c2ncnc3c2[nH]c2ccc(F)cc23)CC1 | 4.54 µM (inactive)
53 | CCCCCCn1c(=O)c(C(=O)Nc2cnccn2)c(O)c2ccccc21 | 2.64 µM
54 | Cc1ccc(/C=N/NC(=O)CSCc2ccc(Cl)cc2)cc1 | 9.83 µM (inactive)
55 | O=C1NC(=S)S/C1=C\C=C\c1ccc([N+](=O)[O-])o1 | 9.29 µM (inactive)
56 | Cc1cccc(NS(=O)(=O)c2ccc(C3CCCCC3)cc2)c1 | 6.93 µM (inactive)
57 | CNc1ccc2oc(C[C@H]3O[C@@]4(CC[C@H]3C)O[C@H]([C@H](C)C(=O)c3ccc[nH]3)[C@H](C)C[C@H]4C)nc2c1C(=O)O | < 0.16 µM
58 | CCCCCCn1c(CN2CCN(Cc3ccccc3)CC2)nc2c1c(=O)n(C)c(=O)n2C | 6.9 µM (inactive)
59 | O=Nc1ccc(O)c2ncccc12 | 8.83 µM (inactive)
60 | CCC(C)Sc1nc2c(c(=O)[nH]c(=O)n2C)n1Cc1ccc(Cl)cc1 (centres undefined) | > 10 µM (inactive)
61 | Cc1ccc(C2(c3ccc(C)cc3)CC2C(=O)Nc2ccc([N+](=O)[O-])cc2O)cc1 (centres undefined) | 8.64 µM (inactive)
62 | FC(F)(F)c1cccc(NC(=S)NC(c2ccccc2)c2ccccc2)c1 | 9.54 µM (inactive)
63 | CCCCc1c(C)nn(-c2nnc3c4ccccc4n(CC)c3n2)c1C | 9.73 µM (inactive)
64 | Nc1cc(Cl)ccc1Oc1ccc(Cl)cc1 | 4.67 µM (inactive)
65 | OC(CNCCc1ccc(C(F)(F)F)cc1)COc1ccc2ccccc2c1 (centres undefined) | 9.41 µM (inactive)
66 | CC(C)(C)c1ccc(NC(=O)Nc2ccc(F)cc2)cc1 | > 10 µM (inactive)
67 | COc1ccc(NS(=O)(=O)c2ccc(O)c(NC(=O)c3cc4c(C)nn(-c5ccc(F)cc5)c4s3)c2)cc1 | 6.99 µM (inactive)
68 | Cc1cc(Cl)ccc1OCC(=O)N[C@@H](Cc1ccccc1)c1nc2ccccc2[nH]1 | 9.23 µM (inactive)
69 | CCOC(=O)CCS(=O)(=O)c1nc(-c2ccccc2)cc(C(F)(F)F)n1 | < 0.16 µM
